# US12187705B2, “Heteroaryl-triazole and heteroaryl-tetrazole compounds as pesticides” (Bayer Aktiengesellschaft, priority 2018, dated 2025)
# Columns and labels:
# Assay type in all cases: in vivo
# Nilaparvata lugens = Nilaparvata lugens spray test; conditions: for mortality at 500 g/ha: Nilaparvata lugens, in Oryza sativa, 96 h
# Procedure, shortened: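 Rice plants sprayed with compound diluted in water containing 1000 ppm emulsifier, then infested with brown planthopper. Mortality (%) scored after 4 days, 100% meaning all insects killed.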
# Ctenocephalides felis [1] = test: Ctenocephalides felis oral test; conditions: Ctenocephalides felis, in Bos taurus, po, 48 h
# Procedure, shortened: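 About 20 adult unfed fleas fed through parafilm on cattle blood containing compound (DMSO concentrate diluted in blood); blood held at 37° C., fleas at room temperature. Mortality in % scored after 2 days (100% = all killed).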
# Boophilus microplus = Boophilus microplus injection test; conditions: 20 μg/animal, egg deposition after 7 days; for pest or weed control at 0.02 mg: Rhipicephalus microplus, 168 h, read-out: efficacy (infertile eggs)
# Procedure, shortened: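 Engorged adult female ticks, five per dose, received 1 μl of compound in DMSO injected into the abdomen and were kept in a climate chamber. Fertile egg deposition was checked after 7 days, with eggs of unclear fertility held until hatching at about 42 days. Efficacy 100% = all eggs infertile, 0% = all fertile.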
# Myzus persicae [2] = test: Myzus persicae oral test; conditions: 120 h
# Procedure, shortened: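 Feeding test: compound diluted in water was combined with IPL41 insect medium (33%+15% sugar) under a parafilm seal. A mixed population of green peach aphids fed through the membrane. Mortality (%) was scored after 5 days.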
# Nezara viridula = Nezara viridula spray test; conditions: in Hordeum vulgare, 96 h
# Procedure, shortened: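 Barley plants infested with stink bug larvae were sprayed with compound diluted in water containing 1000 ppm emulsifier. Mortality (%) was scored after 4 days, 100% meaning all bugs killed.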
# Phaedon cochleariae = Phaedon cochleariae spray test; conditions: foliar, 168 h, Chinese cabbage leaf disks, after 7 days
# Procedure: Phaedon cochleariae—Spray Test
# To produce a suitable preparation of active compound, 1 part by weight of active compound is mixed with the stated amount of solvents and is diluted with water, containing an emulsifier concentration of 1000 ppm, to the desired concentration. Further test concentrations are prepared by dilution with emulsifier containing water.
# Chinese cabbage (Brassica pekinensis) leaf disks are sprayed with a preparation of the active ingredient of the desired concentration. Once dry, the leaf disks are infested with mustard beetle larvae (Phaedon cochleariae).
# After 7 days mortality in % is determined. 100% means all beetle larvae have been killed and 0% means none of the beetle larvae have been killed.
# Rhipicephalus sanguineus = Rhipicephalus sanguineus in-vitro contact test with adult brown dog ticks; conditions: 5 μg/cm^2 (=500 g/ha), after 48 hours; for pest or weed control at 5 µg/cm2, 5 µg/cm2: Rhipicephalus sanguineus, read-out: efficacy (ticks dead or moribund)
# Procedure: Rhipicephalus sanguineus—In-Vitro Contact Test with Adult Brown Dog Ticks
# 9 mg compound is solved in 1 ml acetone and diluted with acetone to the desired concentration. 250 μl of the test solution is filled in 25 ml glass test tubes and homogeneously distributed on the inner walls by rotation and tilting on a shaking device (2 h at 30 rpm). With a compound concentration of 900 ppm, an inner surface of 44.7 cm^2 and a homogeneous distribution, a dose of 5 μg/cm^2 is achieved.
# After the solvent has evaporated, each test tube is filled with 5-10 adult brown dog ticks (Rhipicephalus sanguineus), closed with a perforated lid and incubated in a lying position at room temperature and relative humidity. After 48 hours efficacy is determined. The ticks are patted on the ground of the tubes and are incubated on a heating plate at 45-50° C. for at most 5 minutes. Immotile or uncoordinated moving ticks, which are not able to escape the heat by climbing upwards, are marked as dead or moribund.
# An efficacy of 100% means all ticks are dead or moribund; 0% means no ticks are dead or moribund.
# Diabrotica balteata = Diabrotica balteata spray test; conditions: 160 μg/well, wheat seeds, after 7 days; for pest or weed control at 160 µg/disc, 160 µg/well: Diabrotica balteata, 168 h, read-out: efficacy (seedlings grown)
# Procedure, shortened: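 Wheat seeds germinated 1 day on agar were sprayed with compound diluted in water with 1000 ppm emulsifier, then infested with 10-20 Diabrotica balteata larvae. Efficacy in % scored after 7 days: 100% = seedlings grown as untreated, uninfected control; 0% = no seedlings grown.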
# Ctenocephalides felis [3] = test: Ctenocephalides felis in-vitro contact test adult cat flea; conditions: 5 μg/cm^2 (=500 g/ha), after 48 hours; for pest or weed control at 5 µg/cm2, 5 µg/cm2: Ctenocephalides felis, read-out: efficacy (fleas dead or moribund)
# Procedure, shortened: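 Compound in acetone was coated on glass tube walls, giving 5 μg/cm^2 at 900 ppm. 5-10 adult cat fleas were held at room temperature for 48 h, then heat-challenged at 45-50° C. Fleas immotile or uncoordinated were scored dead/moribund, expressed as % efficacy.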
# Spodoptera frugiperda = Spodoptera frugiperda spray test; conditions: in Zea mays, 168 h
# Procedure, shortened: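 Maize leaf sections were sprayed with compound formulated in solvent and diluted in water containing 1000 ppm emulsifier, then infested with fall armyworm larvae after drying. Percent mortality was scored after 7 days (100% = all caterpillars dead, 0% = none).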
# [4] = test system: Musca domestica strain WHO-N; test: Musca domestica test (MUSCDO surface treatment & contact assay); conditions: 24 hours after contact, read-out: efficacy (mortality); for mortality at 20 mg/m2: surface concentration 20 mg/m^2, 30 minutes exposure
# Procedure: Musca domestica Test (MUSCDO Surface Treatment & Contact Assay)
# Solvent: Aceton+2000 ppm rapeseed oil methyl ester (RME)
# In order to produce a sufficient, active ingredient containing solution it is necessary to solve the test-compound in the solvent-mix (Acetone at 2 mg/ml/RME 2000 ppm). This solution is pipetted onto a glazed tile and after evaporation of the Acetone, adult flies of the species Musca domestica strain WHO-N are placed onto the dried surface. The exposure time is 30 minutes.
# Mortality in percent (%) is determined 24 hours after contact to the treated surface. 100% mortality means that all test-insects are dead, whereas 0% means that not a single insect died.
# [5] = test system: Aedes aegypti strain MONHEIM; test: Aedes aegypti test (AEDSAE surface treatment & contact assay); conditions: 24 hours after contact, read-out: efficacy (mortality); for mortality at 4 mg/m2: surface concentration 4 mg/m^2, 30 minutes exposure; for mortality at 20 mg/m2: surface concentration 20 mg/m^2, 30 minutes exposure
# Procedure, shortened: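 Compound dissolved in acetone (2 mg/ml) with 2000 ppm rapeseed oil methyl ester and dried onto a glazed tile. Adult mosquitoes held on the treated surface for 30 minutes exposure. Percent mortality scored 24 hours after contact.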
# [6] = test system: cattle ticks (Boophilus microplus) strane Parhurst, SP-resistant; test: Boophilus microplus dip test; conditions: 100 ppm, egg deposition after 7 days
# Procedure: Boophilus microplus—Dip Test
# Test animal: cattle ticks (Boophilus microplus) strane Parhurst, SP-resistant
# Solvent: dimethyl sulfoxide
# To produce a suitable preparation of active compound, 10 mg of active compound are dissolved in 0.5 ml solvent, and the concentrate is diluted with water to the desired concentration.
# This compound solution is pipetted into tubes. 8-10 engorged, adult, female cattle ticks (Boophilus microplus) are placed in perforated tubes. These tubes are immersed in the aqueous compound solution until the ticks are completely moistened. After the liquid has drained off, the ticks are transferred to a filter paper in a plastic tray and stored in a climate chamber.
# After 7 days egg deposition of fertile eggs is monitored. Eggs where fertility is not visible are stored in a climate chamber till hatching after about 42 days. An efficacy of 100% means all eggs are infertile; 0% means all eggs are fertile.
# [7] = test system: Culex quinquefasciatus strain P00; test: Culex quinquefasciatus test (CULXFA surface treatment & contact assay); conditions: 24 hours after contact, read-out: efficacy (mortality); for mortality at 20 mg/m2: surface concentration 20 mg/m^2, 30 minutes exposure
# Procedure, shortened: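 Compound dissolved in acetone (2 mg/ml) with 2000 ppm rapeseed oil methyl ester, applied to glazed tile and dried. Adult strain P00 mosquitoes exposed to the surface for 30 minutes. Percent mortality scored 24 hours after contact.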
# [8] = test system: Anopheles funestus strain FUMOZ-R; test: Anopheles funestus test (ANPHFU surface treatment & contact assay); conditions: 24 hours after contact, read-out: efficacy (mortality); for mortality at 4 mg/m2: surface concentration 4 mg/m^2, 30 minutes exposure; for mortality at 20 mg/m2: surface concentration 20 mg/m^2, 30 minutes exposure
# Procedure, shortened: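 Compound dissolved in acetone (2 mg/ml) with 2000 ppm rapeseed oil methyl ester, dried onto glazed tile; adult Anopheles funestus FUMOZ-R exposed for 30 minutes. Percent mortality scored 24 hours after contact.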
# Myzus persicae [9] = test: Myzus persicae spray test; conditions: in Brassica rapa, foliar, 120 h
# Procedure, shortened: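 Chinese cabbage leaf disks infested with all aphid instars were sprayed with compound diluted in water containing emulsifier (1000 ppm). Mortality (%) was scored after 5 days, 100% meaning all aphids killed.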
# [10] = surface concentration 4 mg/m^2, 30 minutes exposure
SMILES,mortality at 500 g/ha (Nilaparvata lugens),mortality at 100 ppm (Ctenocephalides felis [1]),pest or weed control at 0.02 mg (Boophilus microplus),mortality at 20 ppm (Myzus persicae [2]),mortality at 500 g/ha (Nezara viridula),mortality at 500 g/ha (Phaedon cochleariae),"pest or weed control at 5 µg/cm2, 5 µg/cm2 (Rhipicephalus sanguineus)","pest or weed control at 160 µg/disc, 160 µg/well (Diabrotica balteata)","pest or weed control at 5 µg/cm2, 5 µg/cm2 (Ctenocephalides felis [3])",mortality at 500 g/ha (Spodoptera frugiperda),mortality at 4 mg/m2 [5],mortality at 20 mg/m2 [5],efficacy (infertile eggs) (Boophilus microplus),efficacy (seedlings grown) (Diabrotica balteata),efficacy (fleas dead or moribund) (Ctenocephalides felis [3]),also measured
"CC(c1ncnn1-c1ncccn1)N(CC1CC1)C(=O)c1cc(Cl)cc(S(C)(=O)=O)c1 (stereo not drawn) [Example I-003, 3-chloro-N-(cyclopropylmethyl)-5-(methylsulfonyl)-N-{1-[1-(pyrimidin-2-yl)-1H-1,2,4-triazol-5-yl]ethyl}benzamide]",100%,100%,100%,100%,100%,100%,100%,100%,100%,–,–,–,–,–,–,mortality at 4 ppm (Myzus persicae [2]): 90%
C[C@@H](NC(=O)c1cc(OC(F)(F)F)cc(C2CC2)c1)c1ncnn1-c1ccc(C#N)cn1 [Example I-053],–,100%,–,–,–,–,100%,100%,–,100%,80 to 100%,90 to 100%,–,–,–,"mortality at 4 mg/m2 [4, 10]: 80 to 100%; mortality at 20 mg/m2 [4]: 80 to 100%"
CC(NC(=O)c1cc(Cl)cc(C2CC2)c1)c1ncnn1-c1ncccn1 (stereo not drawn) [Example I-050],–,–,–,–,–,–,–,–,–,–,–,–,100%,80%,100%,efficacy (infertile eggs) [6]: 90%
CSc1cc(Cl)cc(C(=O)N[C@H](C)c2ncnn2-c2ccc(C#N)cn2)c1 [Example I-066],–,100%,–,–,100%,–,80%,100%,100%,100%,80 to 100%,90 to 100%,–,–,–,"mortality at 4 ppm (Myzus persicae [2]): 90%; mortality at 4 mg/m2 [7, 10]: 80 to 100%; mortality at 20 mg/m2 [7]: 80 to 100%; mortality at 4 mg/m2 [8]: 85 to 100%; mortality at 20 mg/m2 [8]: 85 to 100%; mortality at 500 g/ha (Myzus persicae [9]): 90%; mortality at 20 mg/m2 [4]: 80 to 100%"
CC(c1ncnn1-c1ncccn1)N(CC1CC1)C(=O)c1cccc(S(C)(=O)=O)c1 (stereo not drawn) [Example I-001],100%,100%,100%,100%,100%,100%,100%,–,80%,–,80 to 100%,90 to 100%,–,–,–,mortality at 20 mg/m2 [7]: 80 to 100%; mortality at 4 mg/m2 [8]: 85 to 100%; mortality at 20 mg/m2 [8]: 85 to 100%
CC(c1ncnn1-c1ncccn1)N(CC1CC1)C(=O)c1cc(C(F)(F)F)cc(Cl)c1F (stereo not drawn) [Example I-004],100%,100%,–,100%,100%,100%,80%,100%,–,83%,–,–,–,–,–,–
CC(NC(=O)c1cc(Cl)cc(S(C)(=O)=O)c1)c1ncnn1-c1ccc(C#N)cn1 (stereo not drawn) [Example I-035],–,–,–,–,–,–,–,–,–,–,–,–,100%,100%,100%,efficacy (infertile eggs) [6]: 100%
CC(c1ncnn1-c1ncccn1)N(CC1CC1)C(=O)c1cncc(S(C)(=O)=O)c1 (stereo not drawn) [Example I-002],–,100%,100%,–,100%,–,80%,–,100%,–,–,–,–,–,–,–
CC(NC(=O)c1cc(F)cc(C2CC2)c1)c1ncnn1-c1ncccn1 (stereo not drawn) [Example I-045],–,–,–,–,–,–,–,–,–,–,–,–,100%,100%,100%,"mortality (Nilaparvata lugens; 500 g/ha, rice plants, after 4 days): 90%; efficacy (ticks dead or moribund) (Rhipicephalus sanguineus): 100%"
